Where two headings read alike, the source gives them in different places.

These results are taken from US20080194646A1, “Methods For Avoiding Edema in the Treatment of Metabolic, Inflammatory, and Cardiovascular Disorders” (priority 2005, published 2008).

Series [1] deals with C57BL/6j ob/ob Mice. Put plainly: anti-diabetic activity in C57BL/6j ob/ob mice (Example 13). As to conditions: oral gavage once a day for 1-4 days; for Potency: glucose lowering, 5 to 125 mg/kg, plasma glucose 6 hours after each dose. In kind it is in vivo. The protocol:
The anti-diabetic activities of the compounds were evaluated in the C57BL/6j ob/ob Mice model.
(§1) Male, 7-9 weeks old, C57BL/6J ob/ob mice were purchased from The Jackson Laboratory (Bar Harbor, Me., USA). Animals were housed (4-5 mice/cage) under standard laboratory conditions at 22±3° C. temperature and 50±20% relative humidity, and were maintained on a diet of Purina rodent chow and water ad libitum. Prior to treatment, blood was collected from the tail vein of each animal. Mice that had non-fasting plasma glucose levels between 250 and 500 mg/dl were used. Each treatment group consisted of 8-10 mice that were distributed so that the mean glucose levels were equivalent in each group at the start of the study. Mice were dosed orally by gavage once a day for 1-4 days with vehicle and one or more dose of test compound at a dose ranging from 5 to 125 mg/kg. Compounds were delivered in a liquid formulation containing 5% (v/v) dimethyl sulfoxide (DMSO), 1% (v/v) Tween 80® and 0.9% (w/v) methylcellulose. The gavage volume was 10 ml/kg. Blood samples were taken at 6 hours after the each dose and analyzed for plasma glucose. Food intake and body weight were measured daily. Plasma glucose concentrations were determined colorimetrically using a commercial glucose oxidase method (Sigma Chemical Co, St. Louis, Mo., USA). Significant difference between groups (comparing drug-treated to vehicle-treated) was evaluated using the Student unpaired t-test.
The following table summarizes the anti-diabetic effects of selected compounds of the present invention and provides their relative potency. […] For example, a compound at 25 mg/kg that lowered the animal glucose level from 400 mg/dL (vehicle group value) to 250 mg/dL, is assigned the potency of +++.

The next series concerns the target cytochrome P450 2C9 (Homo sapiens, UniProt P11712). The note with it: comparison of enantiomers and racemate, cited from earlier work.
Series [2] concerns C57BL/6j ob/ob Mice. Nature of the series: glucose lowering activity of halofenate analogs in ob/ob mice (Example 14). In kind it is in vivo. The note with it: 125 mg/kg oral gavage once a day for 1-3 days; Student unpaired t-test. The protocol: Male, 8-9 weeks old, C57BL/6J ob/ob mice were purchased from The Jackson Laboratory (Bar Harbor, Me., USA). Animals were housed (4-5 mice/cage) under standard laboratory conditions at 22±3° C. temperature and 50±20% relative humidity, and were maintained on a diet of Purina rodent chow and water ad libitum. Prior to treatment, blood was collected from the tail vein of each animal. Mice that had non-fasting plasma glucose levels between 250 and 500 mg/dl were used. Each treatment group consisted of 8-10 mice that were distributed so that the mean glucose levels were equivalent in each group at the start of the study. Mice were dosed orally by gavage once a day for 1-3 days with either vehicle, (−) halofenic acid, (+) analog 14, 29, 33, 34, 35, 36, 37, or 38 at 125 mg/kg or (−) analog 29, 36, 37 or 38 at 150 mg/kg. Compounds were delivered in a liquid formulation containing 5% (v/v) dimethyl sulfoxide (DMSO), 1% (v/v) tween 80 and 0.9% (w/v) methylcellulose. The gavage volume was 10 ml/kg. Blood samples were taken at 6 hours after the each dose and analyzed for plasma glucose. Food intake and body weight were measured daily. Plasma glucose concentrations were determined colorimetrically using glucose oxidase method (Sigma Chemical Co, St. Louis, Mo., USA). Significant difference between groups (comparing drug-treated to vehicle-treated) was evaluated using the Student unpaired t-test.

For series [3], the system named is C57BL/6j ob/ob Mice. Nature of the series: anti-diabetic activity in C57BL/6j ob/ob mice (Example 20). The note with it: oral gavage once a day for 1-4 days. In kind it is in vivo. The protocol: as §1, with “The anti-diabetic activities of the compounds were evaluated in the C57BL/6j ob/ob Mice model. Male,” for “Male,”, “Blood samples were taken at 6 hours after the each dose and analyzed for plasma glucose.” left out, “t-test. Table 1 provides the relative potency of some selected compounds of the invention.” for “t-test.”

Sequence of cytochrome P450 2C9 (P11712 whole entry): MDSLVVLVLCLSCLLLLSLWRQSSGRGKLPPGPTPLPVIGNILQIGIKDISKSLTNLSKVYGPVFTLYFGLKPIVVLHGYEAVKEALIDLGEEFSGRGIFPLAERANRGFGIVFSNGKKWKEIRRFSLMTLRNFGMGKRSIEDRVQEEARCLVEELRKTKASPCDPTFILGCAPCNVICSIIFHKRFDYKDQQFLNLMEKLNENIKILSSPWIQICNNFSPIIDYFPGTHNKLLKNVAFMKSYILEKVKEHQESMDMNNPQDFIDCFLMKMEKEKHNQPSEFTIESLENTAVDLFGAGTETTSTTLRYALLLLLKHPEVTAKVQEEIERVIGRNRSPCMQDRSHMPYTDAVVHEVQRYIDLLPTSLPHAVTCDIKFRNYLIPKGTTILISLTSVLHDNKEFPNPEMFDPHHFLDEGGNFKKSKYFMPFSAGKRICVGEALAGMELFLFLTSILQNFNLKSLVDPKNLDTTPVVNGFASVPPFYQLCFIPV

With `O=C(O)C(Oc1ccc(C(F)(F)F)cc1-c1nc2ccccc2o1)c1cccc(C(F)(F)F)c1` (stereo not shown) [Compound I-89], in the series with C57BL/6j ob/ob Mice [1], the Potency result was “+++ (effective for glucose lowering at a dose of ≦25 mg/kg)” and the “Insulin Level compared with vehicle” value is “Lower”.
In the same order, the values of `CC(Oc1ccc(C(F)(F)F)cc1-c1nc2ccccc2o1)(C(=O)O)c1ccccc1` (stereo not shown) [Ia-365] are “+++ (effective for glucose lowering at a dose of ≦25 mg/kg)” and “Lower”.
With `O=C(O)C(Oc1cccc(C(F)(F)F)c1)c1ccc(Cl)cc1` (racemic) [racemic halofenic acid, 4-Chlorophenyl-(3-trifluoromethylphenoxy)-acetic Acid], on cytochrome P450 2C9, the “inhibition of cytochrome P450 2C9” value is “found to inhibit cytochrome P450 2C9”.
Turning to `O=C(O)C(Oc1ccc(Cl)cc1-c1nc2ccccc2o1)c1cccc(C(F)(F)F)c1` (stereo not shown) [Compound I-191], in the series with C57BL/6j ob/ob Mice [1], the Potency result was “+++ (effective for glucose lowering at a dose of ≦25 mg/kg)” and the “Insulin Level compared with vehicle” value is recorded as “Lower”.
With `O=C(O)C(Oc1ccccc1-c1nc2ccccc2o1)c1ccc(Cl)cc1` (stereo not shown) [Compound I-1], in the series with C57BL/6j ob/ob Mice [1], the Potency result was “++ (effective for glucose lowering at a dose of >25 mg/kg but <125 mg/kg)” and the “Insulin Level compared with vehicle” value is listed as “Lower”.
The matching figures for `O=C(O)C(Oc1ccccc1-c1nc2ccccc2o1)c1cccc(C(F)(F)F)c1` (stereo not shown) [Compound I-3]: “+ (effective for glucose lowering at the dose of ≧125 mg/kg)” and “Lower”.
The matching figures for `COc1ccc(C(Oc2ccc(Cl)cc2-c2nc3ccccc3o2)C(=O)O)cc1` (stereo not shown) [Compound I-193]: “+++ (effective for glucose lowering at a dose of ≦25 mg/kg)” and “Lower”.
On to `CC(Oc1ccc(C(F)(F)F)cc1-c1nc2ccccc2o1)(C(=O)O)c1ccccc1` (stereo not shown) [Ia-366], for which the Potency entry in the series with C57BL/6j ob/ob Mice [1] was “+++ (effective for glucose lowering at a dose of ≦25 mg/kg)”.
With `O=C(O)C(Oc1cccc(C(F)(F)F)c1)c1ccc(Cl)cc1` (single isomer, unassigned; (+)) [(+) enantiomer of halofenic acid, (+) 4-chlorophenyl-(3-trifluoromethylphenoxy)-acetic acid], on cytochrome P450 2C9, the “inhibition of cytochrome P450 2C9” value is “quite potent”.
In the case of `O=C(O)C(Oc1ccc(C(F)(F)F)cc1-c1nc2ccccc2o1)c1ccccc1` (stereo not shown) [Compound I-369], in the series with C57BL/6j ob/ob Mice [1], the Potency result is given as “+++ (effective for glucose lowering at a dose of ≦25 mg/kg)” and the “Insulin Level compared with vehicle” value is recorded as “Lower”.
On to `O=C(O)C(Oc1cccc(C(F)(F)F)c1)c1ccc(Cl)cc1` (single isomer, unassigned; (-)) [(−)halofenic acid, (−) (3-trifluoromethylphenoxy) (4-chlorophenyl)acetic acid], for which the “plasma glucose concentrations vs vehicle” value in the series on C57BL/6j ob/ob Mice [2] is “significantly reduced plasma glucose concentrations at 6 hours”. In addition, on cytochrome P450 2C9 (listed as (−) enantiomer of halofenic acid), the “inhibition of cytochrome P450 2C9” value is on record as “about twenty-fold less active”.
Take `O=C(O)C(Oc1ccc(C(F)(F)F)cc1Cl)c1ccc(C(F)(F)F)cc1` (stereo not shown) [Compound 89]: the Potency entry in the series on C57BL/6j ob/ob Mice [3] (glucose lowering, plasma glucose 6 hours after each dose) is reported as “++ (effective for glucose lowering at the dose of ≦125 mg/kg)”. Moreover, in the series on C57BL/6j ob/ob Mice [3], the “Insulin Level compared with vehicle” value was “Lower”.
As for `CC(=O)NCCOC(=O)C(Oc1ccc(C(F)(F)F)cc1)c1ccc(C(F)(F)F)cc1` (stereo not shown) [Compound 145], the “Insulin Level compared with vehicle” value with C57BL/6j ob/ob Mice [3] is recorded as “Lower”.
In the case of `O=C(O)C(Oc1ccc(C(F)(F)F)cc1)c1cccc(C(F)(F)F)c1` (racemic) [Compound 39, (4-trifluoromethyl-phenoxy)-(3-trifluoromethyl-phenyl)-acetic acid], the minimal effective dose in the series with C57BL/6j ob/ob Mice [3] (Mus musculus, glucose lowering, plasma glucose 6 hours after each dose, read-out: Potency) was at most 125 mg/kg. Further, in the series on C57BL/6j ob/ob Mice [3], the “Insulin Level compared with vehicle” value was “Lower”.
`O=C(O)C(Oc1ccc(C(F)(F)F)cc1-c1nc2ccccc2o1)c1ccc(Cl)cc1` (stereo not shown) [Compound I-372]: in the series with C57BL/6j ob/ob Mice [1], the Potency entry was “+++ (effective for glucose lowering at a dose of ≦25 mg/kg)” and the “Insulin Level compared with vehicle” value is given as “Lower”.
`CC(=O)NCCOC(=O)C(Oc1cc(C(F)(F)F)cc(C(F)(F)F)c1)c1ccc(C(F)(F)F)cc1` (stereo not shown) [Compound 143]: in the series with C57BL/6j ob/ob Mice [3], the “Insulin Level compared with vehicle” value is “Lower”.
On to `O=C(O)C(Oc1ccc(Cl)cc1-c1nc2ccccc2o1)c1cccc(Cl)c1` (stereo not shown) [Compound I-194], for which, in the series on C57BL/6j ob/ob Mice [1], the Potency entry was “+++ (effective for glucose lowering at a dose of ≦25 mg/kg)” and the “Insulin Level compared with vehicle” value is “Lower”.
Regarding `O=C(O)C(Oc1ccc(Cl)cc1-c1nc2ccccc2o1)c1ccc(Cl)cc1` (stereo not shown) [Compound I-190], in the series on C57BL/6j ob/ob Mice [1], the Potency entry is reported as “+++ (effective for glucose lowering at a dose of ≦25 mg/kg)” and the “Insulin Level compared with vehicle” value is on record as “Lower”.
